Like-named read-outs stand apart in the source and are kept apart here.
How the values were obtained:
[1] = system: HeLa, MCF-7, and SK-OV-3 cells; assay: Cytotoxicity, MTT assay; assay type: cell-based, human; conditions: all examined cell lines, 72 h
Protocol: The cancer cell lines HeLa (human cervical carcinoma), MCF-7 (human breast adenocarcinoma), and SK-OV-3 (human ovarian carcinoma) were purchased from the American Type Culture Collection (ATCC, Manassas, VA, USA). Cells were maintained in DMEM medium supplemented with 10% fetal bovine serum and gentamycin (50 μg/mL). Cells were maintained in plastic 25 cm^2 cell culture flasks at 37 °C in a humidified atmosphere containing 5% CO2. HeLa, MCF-7, and SK-OV-3 cells were plated before reaching 80% confluence using trypsin/EDTA solution.
MCF-7, SK-OV-3, and HeLa cells were plated in 96-well plates (5000 cells per well) one day before the experiment and incubated under standard conditions. MeP and MeP-NPs were added in triplets in the concentration range 0.125–100 μM (according to the MeP concentration) and incubated for 2 h. To determine cytotoxicity, cells were treated with AA alone or in combination with MeP in a molar ratio of 1:20 to MeP and then incubated for 72 h. Cell survival was determined using the standard MTT assay. Cell viability was determined as the percent of untreated control. Mean survival values were calculated in Excel (Microsoft Corporation, Redmond, Washington, DC, USA)) and data visualization was performed in OriginPro (version 2020b, OriginLab Corp., Northampton, MA, USA).

BALB/c female mice = assay: Acute toxicity analysis; assay type: in vivo; conditions: i.v. tail vein, 24 h
Protocol: All experimental procedures with animals (mice and rats) were performed according to the University Ethics Committee for the use of experimental animals and animal studies were carried out as per the guidelines of the European Medicines Agency, Amsterdam, the Netherlands.
MeP and MeP-NP acute toxicity analysis was accomplished using randomly divided mice groups (n = 3). The samples were diluted in PBS and injected (200 μL) via the lateral tail vein. Due to poor water solubility, MePs were preliminarily dissolved in DMSO and Tween 80: the final solution represented 5% v/v DMSO and 2% Tween 80 v/v in PBS. Survival was registered for 24 h after injection.

[2] = In vitro release study of MeP-loaded NPs in PBS pH 7.4 with 0.1% Tween 80; assay type: physicochemical; conditions: for release rate constant kк (Korsmeyer–Peppas model) / release exponent n (Korsmeyer–Peppas model): MeP release from MeP-loaded PLGA NPs; for release rate constant kк (Korsmeyer–Peppas model): PBS pH 7.4, 0.1% Tween 80, 37 °C; for release exponent n (Korsmeyer–Peppas model): less than 0.43 = Fickian diffusion; for duration of the fast (rapid) release phase: biphasic release from MeP-loaded NPs
Excerpt: We analyzed the release according to the method of Abouelmag et al. using a phosphate-buffered saline (PBS) pH 7.4 containing 0.1% Tween 80 (Figure 8) as a release medium.
We determined the MeP release mechanisms by fitting the data obtained by applying several release kinetic models (Table 7). […] The release exponent values were n = 0.01 for NiTPP, n = 0.06 for CoTPP, and n = 0.11 for MnClTPP, and less than 0.43, indicating Fickian diffusion of MeP [92].
The time-dependent release of MeP was analyzed by dissolving 3 mg of NPs in 1 mL of PBS (0.01 M, pH 7.4) and incubation in a dark glass bottle containing 40 mL of PBS (0.01 M, pH 7.4) and 0.1% (w/v) Tween 80 solution. The probes were kept on a shaker incubator at 90 rpm and 37 °C. Aliquots of 1 mL of media were taken at 0, 0.25, 0.5, 0.75, 1, 1.5, 2, 3, 4, 24, 48, 72, 120, 144, and 192 h and replenished with 1 mL of fresh PBS. The collected aliquots were centrifuged for 3 min at 5000× g at 37 °C. The supernatants were removed and lyophilized as well as the sediments. The amount of MeP released at each time point was calculated as described above according to optical absorption.

[3] = MeP loading content and encapsulation efficiency of PLGA NPs (spectrophotometry); assay type: physicochemical; conditions: optimized MeP-loaded PLGA NPs; for MeP loading content (LC): observed data
Protocol: EE and LC calculation is a critical stage in NP analysis, evaluating the MeP amount in NPs’ core. The EE of MeP was determined by dissolving 4 mg of NPs in 4 mL of distilled water followed by centrifugation at 5000× g for 3 min and subsequent lyophilization. The optical density of the sediment and supernatant was assessed at 465 nm for MnClTPP, 433 nm for NiTPP, and 428 nm for CoTPP. The entrapment efficiency of MeP (EE) was calculated according to Equation (9):(9) EE (%)=The mass of MeP in the nanoparticles, mg/The mass of the nanoparticles weight, mg ∗100%
MeP LC corresponded to the optical density of 4 mg of lyophilized NPs in 4 mL of DMSO. Subsequent absorption analysis was performed as indicated earlier and LC calculated according to the following Equation (10): (10) LC (%) = Absorbance∗VDMSO/ε∗msample∗100% where VDMSO is the total volume of suspension containing NPs (L), ε is the extinction coefficient of MeP in DMSO (ε = 116,280 M^−1 cm^−1 for MnClTPP, ε = 36,797 M^−1 cm^−1 for NiTPP, ε = 87,448 M^−1 cm^−1 for CoTPP), and msample is the NPs mass (g).

[4] = rat, in vivo, iv
Protocol: The MeP and MeP-NPs were administered via the lateral tail vein at tahe dose of 12.5 (NiTPP, CoTPP, and corresponding NPs at the equivalent dose) and 6.3 mg/kg (MnClTPP and MnClTPP-NPs at the equivalent dose).
Female Wistar rats (body weight 220–240 g) were supplied by Stolbovaya animal facility (Branch of the Scientific Center of Biomedical Technologies of the Federal Medical Biological Agency (Moscow, Russia)). The animals were kept under controlled conditions (temperature of 22 ± 2 °C and relative humidity of 50 ± 10%) with free access to water and standard pellet feed.
The MeP and MeP-NPs pharmacokinetics study was accomplished using randomly divided rat groups (n = 3). Blood samples (50 μL) were collected before injection and after at different time points: 0.25, 0.50, 1.0, 3.0, 6.0, 24.0, and 48.0 h. The blood samples were diluted to 1.0 mL and analyzed with ICP-MS (Agilent 7500C, Agilent Technologies, Tokyo, Japan) [112]. The sample introduction system consisted of a robust Babington nebulizer with a Scott spray chamber (Agilent Technologies, Tokyo, Japan) cooled by a Peltier element (2 °C). The data were acquired and processed with the ICP-MS ChemStation (Agilent Technologies, version G1834B; Santa Clara, CA, USA) software package. The internal standard method was applied in order to take into account the effect of the matrix; Rh was used as internal standard. For dilution of the whole blood samples and standard solution, the mixture of 0.1% Triton X-100–1% HNO3 was used. The same solution was used as the mobile phase of the mass spectrometer.
The pharmacokinetic parameters of MeP were estimated using standard non-compartmental methods [113]. The volume of distribution (Vd), mean residence time (MRT), elimination half-life (t1/2), and area under the plasma concentration–time curve from 0 h to infinity (AUCinf) were determined after intravenous administration of MeP-loaded NPs to animals. All calculations were performed using the PKSolver add-in program for Microsoft Excel [114].

[5] = In vitro release study of MeP-loaded NPs in PBS pH 7.4 with 0.1% Tween 80; assay type: physicochemical; conditions: after 180 h

## O=C1O[C@H]([C@@H](O)CO)C(O)=C1O [AA, ascorbic acid]
[1]
  cytotoxicity alone, without combination (in words): lacked cell growth inhibition

## C1=Cc2nc1c(-c1ccccc1)c1ccc([n-]1)c(-c1ccccc1)c1nc(c(-c3ccccc3)c3ccc([n-]3)c2-c2ccccc2)C=C1.[Co+2] [CoTPP]
BALB/c female mice; 6.25 mg/kg
  Mice Survived: 3/3
BALB/c female mice; 12.5 mg/kg
  Mice Survived: 3/3
BALB/c female mice; 25 mg/kg
  Mice Survived: 2/3
BALB/c female mice; 50 mg/kg
  Mice Survived: 0/3
[2]
  release rate constant kк (Korsmeyer–Peppas model): 74.3 h⁻¹
  release exponent n (Korsmeyer–Peppas model): 0.06
  duration of the fast (rapid) release phase: 30 min
[3]
  encapsulation efficiency (EE): 79.7%
  MeP loading content (LC): 8.7%
[4]; 12.5 mg/kg
  AUCinf: 60,370 ± 18,111 (µg/mL) (h)
  MRT: 27 ± 7 h
  Vd: 0.003 ± 0.001 L/kg
  t1/2: 17 ± 4 h

## C1=Cc2nc1c(-c1ccccc1)c1ccc([n-]1)c(-c1ccccc1)c1nc(c(-c3ccccc3)c3ccc([n-]3)c2-c2ccccc2)C=C1.[Cl-].[Mn+3] [MnClTPP, MnCl3-tetraphenylporphyrin chloride]
BALB/c female mice; 6.25 mg/kg
  Mice Survived: 3/3
BALB/c female mice; 12.5 mg/kg
  Mice Survived: 3/3
BALB/c female mice; 25 mg/kg
  Mice Survived: 3/3
BALB/c female mice; 50 mg/kg
  Mice Survived: 2/3
[2]
  release rate constant kк (Korsmeyer–Peppas model): 49.4 h⁻¹
  release exponent n (Korsmeyer–Peppas model): 0.11
  duration of the fast (rapid) release phase: 15 min
[5]
  MeP released from NPs: 80%
[3]
  encapsulation efficiency (EE): 79.9%
  MeP loading content (LC): 28.9%
[4]; 6.3 mg/kg
  AUCinf: 15,362 ± 5377 (µg/mL) (h)
  MRT: 62 ± 21 h
  Vd: 0.013 ± 0.004 L/kg
  t1/2: 44 ± 14 h

## C1=Cc2nc1c(-c1ccccc1)c1ccc([n-]1)c(-c1ccccc1)c1nc(c(-c3ccccc3)c3ccc([n-]3)c2-c2ccccc2)C=C1.[Ni+2] [NiTPP]
BALB/c female mice; 6.25 mg/kg
  Mice Survived: 3/3
BALB/c female mice; 12.5 mg/kg
  Mice Survived: 3/3
BALB/c female mice; 25 mg/kg
  Mice Survived: 1/3
BALB/c female mice; 50 mg/kg
  Mice Survived: 0/3
[2]
  release rate constant kк (Korsmeyer–Peppas model): 91.3 h⁻¹
  release exponent n (Korsmeyer–Peppas model): 0.01
  duration of the fast (rapid) release phase: 30 min
[3]
  MeP loading content (LC): 11.1%
[4]; 12.5 mg/kg
  AUCinf: 612 ± 184 (µg/mL) (h)
  MRT: 25 ± 6 h
  Vd: 2.683 ± 0.805 L/kg
  t1/2: 19 ± 6 h

From article PMC8618356, “Optimization, Characterization and Pharmacokinetic Study of Meso-Tetraphenylporphyrin Metal Complex-Loaded PLGA Nanoparticles” (International Journal of Molecular Sciences, 2021)
